Measurements published in article PMC11653702, “Targeting the SPC25/RIOK1/MYH9 Axis to Overcome Tumor Stemness and Platinum Resistance in Epithelial Ovarian Cancer” (Advanced Science, 2024).
“And” between values parts separate entries of the source, which are not always exact repeats. Equal entries are not always repeated.

Legend:
OVCAR3 cells = assay: Intraperitoneal tumor model, bioluminescence, OVCAR3; type: in vivo, human EOC cells in BALB/c-Nude mice; settings: SPC25-overexpressing OVCAR3, 6 weeks CDDP
Source text: (§1) Subsequently, we selected 4 representative EOC cell lines (Figure S1F,G, Supporting Information) and validated the role of SPC25 in mediating platinum resistance in EOC through a series of in vitro and in vivo experiments. […] To further establish an EOC mouse model, we intraperitoneally injected BALB/c‐Nude mice with EOC cells with stable luciferase expression. CDDP treatment (three times per week, a week as a cycle) was initiated when the bioluminescence signal reached 2 × 10^7 p/s/cm^2/sr.
(§2) In the intraperitoneal tumor model, 1 × 10^6 of the indicated cells stably expressing luciferase were injected intraperitoneally into the mice. Treatment with saline (Vehicle), CDDP (5 mg/kg, 3 times per week for 1 week), CBP1 (10 mg/kg, once in 2 days), or a combination of CDDP (5 mg/kg, 3 times per week for 1 week) and CBP1 (10 mg/kg, once in 2 days) was initiated when the bioluminescence signal reached 2 × 10^7 p/s/cm^2/sr for 6 weeks of continuous treatment cycles. The mice were sacrificed when they became moribund, as determined by an observer blinded to the treatment. Finally, their tumors were excised for qRT‐PCR and Western blotting.

OVCAR8 cells [1] = assay: Intraperitoneal tumor model, bioluminescence, OVCAR8; type: in vivo, human EOC cells in BALB/c-Nude mice; settings: SPC25-silenced OVCAR8, CDDP
Source text: as §1, §2

OVCAR8 cells [2] = assay: Survival of intraperitoneal tumor-bearing nude mice, OVCAR8; type: in vivo, human EOC cells in BALB/c-Nude mice; parameters: key to Survival status: 0: Alive; 1: Dead; settings: for Survival status / Survival time (Days after CDDP treatment): Balb/c Nude mice; for Survival time (Days after CDDP treatment): >= means alive at this day
Source text: as §1, §2

[3] = tested on: OVCAR3 xenografted tumor tissues; assay: TUNEL assay in intraperitoneal xenografted tumor tissues, OVCAR3; type: in vivo, human EOC cells in BALB/c-Nude mice; settings: for TUNEL+ cell (%): CDDP-treated mice, #1-#6
Experimental: as §2
(§3) TUNEL Assay: The TUNEL staining procedure was conducted on the DeadEnd Fluorometric TUNEL System (#G3250; Promega), according to the manufacturer’s instructions. In brief, paraffin-embedded sections were baked at 65°C for 60 min, followed by three washes in a xylene bath. The sections were then washed in a series of absolute ethanol, 95% ethanol, and 70% ethanol, and finally, in PBS. Then, each section was treated with proteinase K at 37°C for 30 min and washed three times with PBS. Thereafter, the sections were incubated with […] (containing Biotin-11-dUTP and TdT Enzyme) at 37 ℃ for 1 h in the dark, followed by three PBS washes. The samples were subsequently incubated with streptavidin–fluorescein at 37 ℃ for 30 min in the dark, followed by three washes with PBS. DAPI was used to stain the nucleus. Finally, the experimental outcomes were observed under a fluorescence microscope, and the percentages of TUNEL-positive cells were quantified from 10 randomly selected fields.

[4] = tested on: OVCAR8 xenografted tumor tissues; assay: TUNEL assay in intraperitoneal xenografted tumor tissues, OVCAR8; type: in vivo, human EOC cells in BALB/c-Nude mice; settings: for TUNEL+ cell (%): #1-#6; for TUNEL assay: animal model OVCAR8
Experimental: as §2, §3

OVCAR8 cells [5] = assay: Cell Counting Kit-8 viability, OVCAR8; type: cell-based, human; settings: SPC25-silenced OVCAR8
Experimental: (§4) Cell Viability Assay: The indicated cells were seeded into 96-well plates at a density of 4 × 10^3 cells per well. Next, the Cell Counting Kit-8 reagent (Dojindo) was added to the wells, followed by incubation at 37°C for 2 h in the dark, after which the optical density at 450 nm was determined on a microplate reader (EPOCH2; BioTek, USA). Each cell line was represented using triplicate wells, and the experiment was repeated three times.

SKOV3 cells = assay: Cell Counting Kit-8 viability, SKOV3; type: cell-based, human; settings: SPC25-silenced SKOV3
Experimental: as §4

COV644 cells = assay: Annexin V/PI apoptosis, COV644; type: cell-based, human; settings: for PI+/AnnexinV+: replicates #1-#3
Experimental: (§5) Fluorescence-Activated Cell Sorting Assay: For apoptosis analysis, we used an Annexin V-FITC/PI Apoptosis Detection Kit (#A211-01; Vazyme Biotech), according to the manufacturer’s instructions. We considered the total proportion of Annexin V-positive cells (quadrants II and III) to be the apoptotic rate, regardless of the PI status. All samples were analyzed on a flow cytometer (cytoFLEX LX; Beckman Coulter, Indianapolis, IN, USA), and percentages of apoptotic cells were analyzed using CytExpert (Beckman Coulter).

OVCAR8 cells [6] = assay: Annexin V/PI apoptosis, OVCAR8; type: cell-based, human; settings: replicates #1-#3
Experimental: as §5

caspase-3 and PARP = assay: Western blotting of apoptosis-related proteins in xenografted tumor tissues; type: in vivo, human EOC cells in BALB/c-Nude mice; settings: SPC25-overexpressing OVCAR3 tumors, CDDP
Experimental: as §2
Western Blotting: Western blotting was performed using primary antibodies detailed in Table S5 (Supporting Information). Western blotting grayscale analyses were performed using ImageJ (version 2.0.0; NIH, Bethesda, MD, USA). β-Catenin expression was quantified by determining the gray level of each band using Image J and normalized using α-tubulin.

SPC25 = assay: Expression of SPC25 across different generation CDX tumor of Blab/c Nude mice in CDDP group (Ct); type: in vivo; settings: for Gapdh (Ct): Gapdh_rep1-3, single replicates; for Expression of SPC25 (Ct): SPC25_rep1-3, single replicates
Source text: Supplement ADVS-11-2406688-s001.zip/SourceData.xlsx, sheet "Fig1E-1G,S1F" | column: Expression of SPC25 in CDDP-resistant and Parental CDX tumor of Blab/c Nude mice (Ct)

[NH2][Pt]([NH2])([Cl])[Cl] [CDDP, cisplatin]
CDDP resistance of tumors (OVCAR3 cells): notable increase in CDDP resistance | CDDP sensitivity, apoptotic index and survival (OVCAR8 cells [1]): increase in CDDP sensitivity and apoptotic index, as well as prolonged survival | Survival status (OVCAR8 cells [2]; at the day of E151, animal 1): 1 | Survival status (OVCAR8 cells [2]; at the day of E152, animal 2): 1 | Survival status (OVCAR8 cells [2]; at the day of E153, animal 3): 1 | Survival status (OVCAR8 cells [2]; at the day of E154, animal 4): 1 | Survival status (OVCAR8 cells [2]; at the day of E155, animal 5): 1 | Survival status (OVCAR8 cells [2]; at the day of E156, animal 6): 1 | Survival status (OVCAR8 cells [2]; at the day of E157, animal 7): 1 | Survival time (Days after CDDP treatment) (OVCAR8 cells [2]; animal 1): 59 days | Survival time (Days after CDDP treatment) (OVCAR8 cells [2]; animal 2): 50 days | Survival time (Days after CDDP treatment) (OVCAR8 cells [2]; animal 3): 52 days | Survival time (Days after CDDP treatment) (OVCAR8 cells [2]; animal 4): 56 days | Survival time (Days after CDDP treatment) (OVCAR8 cells [2]; animal 5): 57 days | Survival time (Days after CDDP treatment) (OVCAR8 cells [2]; animal 6): 60 days | Survival time (Days after CDDP treatment) (OVCAR8 cells [2]; animal 7): 61 days | Survival, days after CDDP treatment (OVCAR8 cells [2]; OVCAR8 sh-SPC25#1, status 0, individual mice): 63 days and 79 days and 89 days | Survival, days after CDDP treatment (OVCAR8 cells [2]; OVCAR8 sh-SPC25#1, status 1, individual mice): 72 days and 59 days and 60 days | Survival, days after CDDP treatment (OVCAR8 cells [2]; OVCAR8 sh-Scramble, status 1, individual mice): 54 days and 50 days and 55 days and 53 days and 57 days | TUNEL+ cell (%) ([3]; OVCAR3 SPC25-overexpressing): 8.84% and 3.44% and 6.27% and 4.43% and 7.25% and 8.02% | TUNEL+ cell (%) ([3]; OVCAR3 Vector): 31.16% and 27.27% and 21.88% and 26.01% and 32.74% and 29.56% | TUNEL-positive cells ([3]; SPC25-overexpressing OVCAR3, CDDP): reduced number | TUNEL+ cell (%) ([4]; OVCAR8 sh-SPC25#1, CDDP-treated mice): 27.13% and 29.66% and 28.67% and 22.53% and 32.03% and 26.06% | TUNEL+ cell (%) ([4]; OVCAR8 sh-Scramble, CDDP-treated mice): 5.89% and 11.46% and 4.76% and 9.62% and 7.34% and 8.41% | TUNEL assay ([4]; animal #1): 10.02% | TUNEL assay ([4]; animal #2): 8.97% | TUNEL assay ([4]; animal #3): 6.23% | TUNEL assay ([4]; animal #4): 11.92% | TUNEL assay ([4]; animal #5): 7.56% | TUNEL assay ([4]; animal #6): 8.03% | TUNEL assay ([4]; animal #7): 7.63% | CDDP sensitivity (OVCAR8 cells [5]): enhanced CDDP sensitivity | CDDP sensitivity (SKOV3 cells): enhanced CDDP sensitivity | PI+/AnnexinV+ (COV644 cells; COV644 SPC25, CDDP 10μM): 9.53 and 5.89 and 7.71 | PI+/AnnexinV+ (COV644 cells; COV644 Vector, CDDP 10μM): 23.38 and 26.97 and 27.94 | CDDP-induced apoptosis (COV644 cells; SPC25-overexpressing COV644): considerably reduced | PI+/AnnexinV+ (OVCAR8 cells [6]; OVCAR8 Scramble, CDDP 10μM): 7.42 and 8.61 and 9.34 | PI+/AnnexinV+ (OVCAR8 cells [6]; OVCAR8 sh-SPC25#1, CDDP 10μM): 24.86 and 27.38 and 21.74 | PI+/AnnexinV+ (OVCAR8 cells [6]; OVCAR8 sh-SPC25#2, CDDP 10μM): 24.57 and 21.02 and 29.26 | activation of caspase-3 and PARP (caspase-3 and PARP): lowered activation | Gapdh (Ct) (SPC25; 1st generation): 17.013 Ct and 17.354 Ct and 17.197 Ct | Expression of SPC25 (Ct) (SPC25; 1st generation): 27.496 Ct and 27.737 Ct and 27.628 Ct | Gapdh (Ct) (SPC25; 2nd generation): 16.968 Ct and 16.875 Ct and 17.154 Ct | Expression of SPC25 (Ct) (SPC25; 2nd generation): 26.835 Ct and 27.032 Ct and 26.963 Ct | Gapdh (Ct) (SPC25; 3rd generation): 16.826 Ct and 17.002 Ct and 16.952 Ct | Expression of SPC25 (Ct) (SPC25; 3rd generation): 26.448 Ct and 26.397 Ct and 26.314 Ct | Gapdh (Ct) (SPC25; 4th generation): 16.654 Ct and 16.763 Ct and 16.924 Ct | Expression of SPC25 (Ct) (SPC25; 4th generation): 25.574 Ct and 25.623 Ct and 25.706 Ct
